# Test results: patent publication US12187723B2 (BRISTOL-MYERS SQUIBB COMPANY, priority 2019, dated 2025)
# Key:
# human TLR7 = target: T1, human TLR7 (Homo sapiens, UniProt Q9NYK1); assay: TLR7 inhibition reporter assay (HEK-Blue SEAP); type: cell-based; conditions: HEK-Blue cells overexpressing human TLR7, gardiquimod 7.5 μM, 22 hour incubation
# T1 construct: host or cells: HEK-Blue cells
# T1 sequence (Q9NYK1 27-1049): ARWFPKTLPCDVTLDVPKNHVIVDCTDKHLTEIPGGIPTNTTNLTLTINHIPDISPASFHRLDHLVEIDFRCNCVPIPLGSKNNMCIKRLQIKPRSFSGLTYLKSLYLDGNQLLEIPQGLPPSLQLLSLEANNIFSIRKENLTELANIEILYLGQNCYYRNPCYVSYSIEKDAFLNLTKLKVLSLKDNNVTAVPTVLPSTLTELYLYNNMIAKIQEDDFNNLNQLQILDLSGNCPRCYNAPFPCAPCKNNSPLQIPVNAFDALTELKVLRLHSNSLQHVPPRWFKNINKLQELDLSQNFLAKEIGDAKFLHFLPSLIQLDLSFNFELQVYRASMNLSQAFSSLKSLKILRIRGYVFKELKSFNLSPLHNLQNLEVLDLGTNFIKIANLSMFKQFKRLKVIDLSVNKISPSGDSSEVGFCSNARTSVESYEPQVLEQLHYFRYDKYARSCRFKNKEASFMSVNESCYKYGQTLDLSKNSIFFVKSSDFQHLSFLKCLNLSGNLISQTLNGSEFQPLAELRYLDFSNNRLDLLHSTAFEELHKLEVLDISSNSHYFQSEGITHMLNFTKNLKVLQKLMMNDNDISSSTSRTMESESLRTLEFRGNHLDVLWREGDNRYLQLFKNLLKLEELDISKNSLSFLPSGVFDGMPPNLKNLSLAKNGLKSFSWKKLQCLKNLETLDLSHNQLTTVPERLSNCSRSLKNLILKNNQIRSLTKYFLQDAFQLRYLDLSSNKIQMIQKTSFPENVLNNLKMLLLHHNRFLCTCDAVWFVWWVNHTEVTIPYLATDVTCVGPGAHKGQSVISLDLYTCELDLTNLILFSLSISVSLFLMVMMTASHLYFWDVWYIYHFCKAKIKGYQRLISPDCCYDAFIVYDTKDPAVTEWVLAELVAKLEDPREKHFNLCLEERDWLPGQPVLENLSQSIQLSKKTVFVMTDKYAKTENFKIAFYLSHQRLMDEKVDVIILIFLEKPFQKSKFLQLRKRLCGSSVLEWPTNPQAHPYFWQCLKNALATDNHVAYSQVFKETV
# Summary of the method: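 Cells (15000/well for TLR7, 20,000 for TLR8) were treated with compounds over 0.05 nM-50 μM final. After 22 h at 37° C, 5% CO2, SEAP was measured with HEK-Blue Detection reagent; percent inhibition was taken as reduction of agonist-plus-DMSO signal relative to a known inhibitor.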
# human TLR9 = target: T2, human TLR9 (Homo sapiens, UniProt Q9NR96); assay: TLR9 inhibition reporter assay (HEK-Blue SEAP); type: cell-based; conditions: HEK-Blue cells overexpressing human TLR9, ODN2006 5 nM, 22 hour incubation
# T2 construct: host or cells: HEK-Blue cells
# T2 sequence (Q9NR96 26-1032): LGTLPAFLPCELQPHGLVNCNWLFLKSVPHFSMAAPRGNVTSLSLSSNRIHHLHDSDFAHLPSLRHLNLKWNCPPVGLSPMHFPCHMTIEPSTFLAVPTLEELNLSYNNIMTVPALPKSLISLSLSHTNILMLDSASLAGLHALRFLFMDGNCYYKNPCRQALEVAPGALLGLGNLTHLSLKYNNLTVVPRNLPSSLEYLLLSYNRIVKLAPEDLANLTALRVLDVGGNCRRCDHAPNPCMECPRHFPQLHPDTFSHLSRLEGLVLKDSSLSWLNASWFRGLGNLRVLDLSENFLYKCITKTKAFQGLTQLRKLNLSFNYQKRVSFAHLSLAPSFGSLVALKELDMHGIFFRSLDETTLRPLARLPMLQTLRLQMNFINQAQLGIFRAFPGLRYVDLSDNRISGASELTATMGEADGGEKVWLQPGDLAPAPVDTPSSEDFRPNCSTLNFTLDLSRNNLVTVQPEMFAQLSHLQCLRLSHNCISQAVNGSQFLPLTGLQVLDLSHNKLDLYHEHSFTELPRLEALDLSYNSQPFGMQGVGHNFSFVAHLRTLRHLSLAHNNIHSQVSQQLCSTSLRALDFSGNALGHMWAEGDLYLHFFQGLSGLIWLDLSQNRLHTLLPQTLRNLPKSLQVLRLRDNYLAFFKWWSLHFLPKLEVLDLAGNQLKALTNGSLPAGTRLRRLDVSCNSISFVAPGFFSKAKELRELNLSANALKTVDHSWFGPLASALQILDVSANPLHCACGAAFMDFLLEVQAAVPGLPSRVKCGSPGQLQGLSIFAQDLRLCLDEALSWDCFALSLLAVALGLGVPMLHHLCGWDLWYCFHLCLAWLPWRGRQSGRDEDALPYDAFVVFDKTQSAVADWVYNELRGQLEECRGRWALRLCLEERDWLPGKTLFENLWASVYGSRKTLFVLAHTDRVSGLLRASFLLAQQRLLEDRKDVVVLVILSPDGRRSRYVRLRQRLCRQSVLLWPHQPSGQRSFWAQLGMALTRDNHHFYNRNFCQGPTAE
# Summary of the method: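 Human TLR7/8/9 HEK-Blue reporter lines; dose range 0.05 nM–50 μM; 30 min RT preincubation; stimulus gardiquimod 7.5 μM / R848 15.9 μM / ODN2006 5 nM respectively; 22 h, 37 °C; SEAP detected colorimetrically.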
SMILES,IC50 (human TLR7) [µM],IC50 (human TLR9) [µM]
"COc1cc(-c2cc3[nH]c(=O)n([C@H]4CC[C@@H](NC5COC5)CC4)c3cc2C)cn2ncnc12 [Example 59, 5-(8-methoxy-[1,2,4]triazolo[1,5-a]pyridin-6-yl)-6-methyl-1-((1s,4s)-4-(oxetan-3-ylamino)cyclohexyl)-1,3-dihydro-2H-benzo[d]imidazol-2-one]",0.0671,7.57
"COc1cc(-c2cc3[nH]c(=O)n([C@H]4CC[C@@H](NCC5CC5)CC4)c3cc2C)cn2ncnc12 [Example 60, 1-((1s,4s)-4-((cyclopropylmethyl)amino)cyclohexyl)-5-(8-methoxy-[1,2,4]triazolo[1,5-a]pyridin-6-yl)-6-methyl-1,3-dihydro-2H-benzo[d]imidazol-2-one]",0.0276,6.54
"COc1cc(-c2cc3[nH]c(=O)n([C@H]4CC[C@@H](NCC(C)C)CC4)c3cc2C)cn2ncnc12 [Example 61, 1-((1s,4s)-4-(isobutylamino)cyclohexyl)-5-(8-methoxy-[1,2,4]triazolo[1,5-a]pyridin-6-yl)-6-methyl-1,3-dihydro-2H-benzo[d]imidazol-2-one]",0.0206,5.51
"COc1cc(-c2cc3[nH]c(=O)n([C@H]4CC[C@@H](NC5CCCCC5)CC4)c3cc2C)cn2ncnc12 [Example 62, 1-((1s,4s)-4-(cyclohexylamino)cyclohexyl)-5-(8-methoxy-[1,2,4]triazolo[1,5-a]pyridin-6-yl)-6-methyl-1,3-dihydro-2H-benzo[d]imidazol-2-one]",0.012,2.35
"CCN[C@H]1CC[C@@H](n2c(=O)[nH]c3cc(-c4cc(OC)c5ncnn5c4)c(C)cc32)CC1 [Example 63, 1-((1s,4s)-4-(ethylamino)cyclohexyl)-5-(8-methoxy-[1,2,4]triazolo[1,5-a]pyridin-6-yl)-6-methyl-1,3-dihydro-2H-benzo[d]imidazol-2-one]",0.0451,10
"CCCN[C@H]1CC[C@@H](n2c(=O)[nH]c3cc(-c4cc(OC)c5ncnn5c4)c(C)cc32)CC1 [Example 64, 5-(8-methoxy-[1,2,4]triazolo[1,5-a]pyridin-6-yl)-6-methyl-1-((1s,4s)-4-(propylamino)cyclohexyl)-1,3-dihydro-2H-benzo[d]imidazol-2-one]",0.00671,5.49
"COc1cc(-c2cc3[nH]c(=O)n([C@H]4CC[C@@H](NC5CCCC5)CC4)c3cc2C)cn2ncnc12 [Example 65, 1-((1s,4s)-4-(cyclopentylamino)cyclohexyl)-5-(8-methoxy-[1,2,4]triazolo[1,5-a]pyridin-6-yl)-6-methyl-1,3-dihydro-2H-benzo[d]imidazol-2-one]",0.0105,3.44
"COc1cc(-c2cc3[nH]c(=O)n([C@H]4CC[C@@H](NCC5CCCCC5)CC4)c3cc2C)cn2ncnc12 [Example 66, 1-((1s,4s)-4-((cyclohexylmethyl)amino)cyclohexyl)-5-(8-methoxy-[1,2,4]triazolo[1,5-a]pyridin-6-yl)-6-methyl-1,3-dihydro-2H-benzo[d]imidazol-2-one]",0.0208,2.05
"CCC(CC)N1CCC[C@@H](n2c(=O)[nH]c3cc(-c4cc(OC)c5ncnn5c4)c(C)cc32)C1 [Example 67, (R)-5-(8-methoxy-[1,2,4]triazolo[1,5-a]pyridin-6-yl)-6-methyl-1-(1-(pentan-3-yl)piperidin-3-yl)-1,3-dihydro-2H-benzo[d]imidazol-2-one]",0.033,9.62
"COc1cc(-c2cc3[nH]c(=O)n([C@@H]4CCCN(CCC(F)(F)F)C4)c3cc2C)cn2ncnc12 [Example 68, (R)-5-(8-methoxy-[1,2,4]triazolo[1,5-a]pyridin-6-yl)-6-methyl-1-(1-(3,3,3-trifluoropropyl)piperidin-3-yl)-1,3-dihydro-2H-benzo[d]imidazol-2-one]",0.414,27.1
"COc1cc(-c2cc3[nH]c(=O)n([C@@H]4CCCN(C5CCC5)C4)c3cc2C)cn2ncnc12 [Example 69, (R)-1-(1-cyclobutylpiperidin-3-yl)-5-(8-methoxy-[1,2,4]triazolo[1,5-a]pyridin-6-yl)-6-methyl-1,3-dihydro-2H-benzo[d]imidazol-2-one]",0.0969,19.3
"COc1cc(-c2cc3[nH]c(=O)n([C@@H]4CCCN(C5CCOCC5)C4)c3cc2C)cn2ncnc12 [Example 70, (R)-5-(8-methoxy-[1,2,4]triazolo[1,5-a]pyridin-6-yl)-6-methyl-1-(1-(tetrahydro-2H-pyran-4-yl)piperidin-3-yl)-1,3-dihydro-2H-benzo[d]imidazol-2-one]",0.163,17.6
"COc1cc(-c2cc3[nH]c(=O)n([C@@H]4CCCN(CC(C)(C)C)C4)c3cc2C)cn2ncnc12 [Example 71, (R)-5-(8-methoxy-[1,2,4]triazolo[1,5-a]pyridin-6-yl)-6-methyl-1-(1-neopentylpiperidin-3-yl)-1,3-dihydro-2H-benzo[d]imidazol-2-one]",0.0225,29
"COc1cc(-c2cc3[nH]c(=O)n([C@@H]4CCCN(C5COC5)C4)c3cc2C)cn2ncnc12 [Example 72, (R)-5-(8-methoxy-[1,2,4]triazolo[1,5-a]pyridin-6-yl)-6-methyl-1-(1-(oxetan-3-yl)piperidin-3-yl)-1,3-dihydro-2H-benzo[d]imidazol-2-one]",0.676,45.8
"CCC(CC)CN1CCC[C@@H](n2c(=O)[nH]c3cc(-c4cc(OC)c5ncnn5c4)c(C)cc32)C1 [Example 73, (R)-1-(1-(2-ethylbutyl)piperidin-3-yl)-5-(8-methoxy-[1,2,4]triazolo[1,5-a]pyridin-6-yl)-6-methyl-1,3-dihydro-2H-benzo[d]imidazol-2-one]",0.0324,8.07
"COc1cc(-c2ccc3c(c2)[nH]c(=O)n3C2CCN(C)CC2)cn2ncnc12 [Example 74, 5-(8-methoxy-[1,2,4]triazolo[1,5-a]pyridin-6-yl)-1-(1-methylpiperidin-4-yl)-1,3-dihydro-2H-benzo[d]imidazol-2-one]",0.948,0.365
"CCC(CC)CN1CCC(n2c(=O)[nH]c3cc(-c4cc(OC)c5ncnn5c4)ccc32)CC1 [Example 75, 1-(1-(2-ethylbutyl)piperidin-4-yl)-5-(8-methoxy-[1,2,4]triazolo[1,5-a]pyridin-6-yl)-1,3-dihydro-2H-benzo[d]imidazol-2-one]",1.36,2.78
